# In patent US8673894B2 (Hoffmann-La Roche Inc., priority 2010, dated 2014):
# Counter-ions that a name gives are not always drawn.
# Tests used:
# [1] = target: T1, endogenous cellular BACE2 (Rattus norvegicus, UniProt Q6IE75); test: Assay for BACE inhibition by measuring cellular TMEM27 cleavage; format: cell-based; details: INS-TMEM27 (INS1e-derived) cells, shed human TMEM27 in supernatant by ELISA
# T1 construct: endogenous cellular BACE2 in the Ins1e rat cell line; endogenous in cells; host or cells: INS-TMEM27 (INS1e-derived rat insulinoma cell line with doxycycline-inducible full-length human TMEM27)
# T1 sequence (Q6IE75 63-514): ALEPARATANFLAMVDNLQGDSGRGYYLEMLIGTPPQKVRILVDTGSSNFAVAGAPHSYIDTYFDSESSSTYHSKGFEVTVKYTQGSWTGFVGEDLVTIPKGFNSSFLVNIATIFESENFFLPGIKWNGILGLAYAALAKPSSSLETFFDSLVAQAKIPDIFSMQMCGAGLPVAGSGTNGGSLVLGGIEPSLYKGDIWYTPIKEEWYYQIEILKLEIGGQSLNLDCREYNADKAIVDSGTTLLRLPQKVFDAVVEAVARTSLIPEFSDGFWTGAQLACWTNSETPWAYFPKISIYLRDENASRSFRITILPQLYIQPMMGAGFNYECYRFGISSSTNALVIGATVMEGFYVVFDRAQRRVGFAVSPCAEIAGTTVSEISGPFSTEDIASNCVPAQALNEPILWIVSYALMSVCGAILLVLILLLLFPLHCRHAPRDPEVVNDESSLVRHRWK
# How it was run: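 INS1e rat cells with doxycycline-inducible human TMEM27 get inhibitor 2 h before doxycycline (500 ng/ml final), then 46 h further at 37° C. Shed TMEM27 in the supernatant is measured by sandwich ELISA, and the EC50 comes from a curve fit of the ELISA signal.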
# Aβ40 = test: Cellular Aβ-lowering assay; format: cell-based; details: HEK293 cells stably expressing human APP695, Aβ40 in supernatant by ELISA after 18-20 hrs; read-out: Cellular assay Abeta40 IC50
# How it was run: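 HEK293 cells stably expressing human wild-type APP695 were treated with compound for 18-20 h at 37 °C in 0.8% v/v DMSO. Secreted Aβ40 in the supernatant was measured by sandwich ELISA (Aβ40 C-terminus-specific capture, HRP-4G8 detection, TMB read at 450 nm) and quantified against a pure Aβ peptide standard curve.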
IC50 [1],IC50 (Aβ40),SMILES
0.453 µM,1.23 µM,"CCn1cc(Cl)c(C(=O)Nc2ccc(F)c([C@@]3(CC)N=C(N)COCC3(F)F)c2)n1 [Example 91, (R)-N-(3-(3-Amino-5-ethyl-6,6-difluoro-2,5,6,7-tetrahydro-1,4-oxazepin-5-yl)-4-fluorophenyl)-4-chloro-1-ethyl-1H-pyrazole-3-carboxamide]"
0.731 µM,2.8 µM,"CC[C@]1(c2cc(NC(=O)c3n[nH]cc3C)ccc2F)N=C(N)COCC1(F)F [Example 92, (R)-N-(3-(3-Amino-5-ethyl-6,6-difluoro-2,5,6,7-tetrahydro-1,4-oxazepin-5-yl)-4-fluorophenyl)-4-methyl-1H-pyrazole-3-carboxamide]"
155 µM,0.51 µM,"CCc1n[nH]c(C(=O)Nc2ccc(F)c([C@@]3(CC)N=C(N)COCC3(F)F)c2)c1C [Example 93, (R)-N-(3-(3-Amino-5-ethyl-6,6-difluoro-2,5,6,7-tetrahydro-1,4-oxazepin-5-yl)-4-fluorophenyl)-3-ethyl-4-methyl-1H-pyrazole-5-carboxamide]"
0.0243 µM,0.01 µM,"Cc1ccc(C(=O)Nc2ccc(F)c([C@@]3(C)N=C(N)COCC3(F)F)c2)nc1 [Example 94, (R)-N-(3-(3-Amino-6,6-difluoro-5-methyl-2,5,6,7-tetrahydro-1,4-oxazepin-5-yl)-4-fluorophenyl)-5-methylpicolinamide formate]"
0.0663 µM,0.022 µM,"CCn1cc(Cl)c(C(=O)Nc2ccc(F)c([C@@]3(C)N=C(N)COCC3(F)F)c2)n1 [Example 95, (R)-N-(3-(3-Amino-6,6-difluoro-5-methyl-2,5,6,7-tetrahydro-1,4-oxazepin-5-yl)-4-fluorophenyl)-4-chloro-1-ethyl-1H-pyrazole-3-carboxamide]"
0.295 µM,0.057 µM,"C[C@]1(c2cc(NC(=O)c3n[nH]cc3Cl)ccc2F)N=C(N)COCC1(F)F [Example 96, (R)-N-(3-(3-amino-6,6-difluoro-5-methyl-2,5,6,7-tetrahydro-1,4-oxazepin-5-yl)-4-fluorophenyl)-4-chloro-1H-pyrazole-3-carboxamide]"
0.444 µM,0.22 µM,"Cc1c[nH]nc1C(=O)Nc1ccc(F)c([C@@]2(C)N=C(N)COCC2(F)F)c1 [Example 97, (R)-N-(3-(3-Amino-6,6-difluoro-5-methyl-2,5,6,7-tetrahydro-1,4-oxazepin-5-yl)-4-fluorophenyl)-4-methyl-1H-pyrazole-3-carboxamide]"
0.131 µM,0.039 µM,"Cc1ocnc1C(=O)Nc1ccc(F)c([C@@]2(C)N=C(N)COCC2(F)F)c1 [Example 98, (R)-N-(3-(3-Amino-6,6-difluoro-5-methyl-2,5,6,7-tetrahydro-1,4-oxazepin-5-yl)-4-fluorophenyl)-5-methyloxazole-4-carboxamide]"
0.118 µM,0.13 µM,"CCc1ocnc1C(=O)Nc1ccc(F)c([C@@]2(C)N=C(N)COCC2(F)F)c1 [Example 99, (R)-N-(3-(3-Amino-6,6-difluoro-5-methyl-2,5,6,7-tetrahydro-1,4-oxazepin-5-yl)-4-fluorophenyl)-5-ethyloxazole-4-carboxamide]"
0.516 µM,2.8 µM,"CC[C@]1(c2cc(NC(=O)c3nc[nH]c3C)ccc2F)N=C(N)COCC1(F)F [Example 100, (R)-N-(3-(3-Amino-5-ethyl-6,6-difluoro-2,5,6,7-tetrahydro-1,4-oxazepin-5-yl)-4-fluorophenyl)-5-methyl-1H-imidazole-4-carboxamide]"
1.11 µM,0.012 µM,"C[C@]1(c2cc(NC(=O)c3cnc(C(F)(F)F)cn3)ccc2F)N=C(N)COCC1(F)F [Example 101, (R)-N-(3-(3-Amino-6,6-difluoro-5-methyl-2,5,6,7-tetrahydro-1,4-oxazepin-5-yl)-4-fluorophenyl)-5-(trifluoromethyl)pyrazine-2-carboxamide formate]"
2.2 µM,0.033 µM,"CC[C@]1(c2cc(NC(=O)c3ncc(F)cc3C)ccc2F)N=C(N)COCC1(F)F [Example 102, (R)-N-(3-(3-Amino-5-ethyl-6,6-difluoro-2,5,6,7-tetrahydro-1,4-oxazepin-5-yl)-4-fluorophenyl)-5-fluoro-3-methylpicolinamide]"
0.307 µM,0.0029 µM,"C[C@]1(c2cc(NC(=O)c3cnc(OCF)cn3)ccc2F)N=C(N)COCC1(F)F [Example 103, (R)-N-(3-(3-Amino-6,6-difluoro-5-methyl-2,5,6,7-tetrahydro-1,4-oxazepin-5-yl)-4-fluorophenyl)-5-(fluoromethoxy)pyrazine-2-carboxamide formate]"
0.0956 µM,0.16 µM,"Cc1conc1C(=O)Nc1ccc(F)c([C@@]2(C)N=C(N)COCC2(F)F)c1 [Example 104, (R)-N(R)-N-(3-(3-Amino-6,6-difluoro-5-methyl-2,5,6,7-tetrahydro-1,4-oxazepin-5-yl)-4-fluorophenyl)-4-methylisoxazole-3-carboxamide]"
0.378 µM,0.013 µM,"C[C@]1(c2cc(NC(=O)c3cnc(C(F)F)cn3)ccc2F)N=C(N)COCC1(F)F [Example 105, (R)-N-(3-(3-Amino-6,6-difluoro-5-methyl-2,5,6,7-tetrahydro-1,4-oxazepin-5-yl)-4-fluorophenyl)-5-(difluoromethyl)pyrazine-2-carboxamide formate]"
2.17 µM,0.63 µM,"C[C@]1(c2cc(NC(=O)c3nn(CC(F)(F)F)cc3Cl)ccc2F)N=C(N)COCC1(F)F [Example 106, (R)-N-(3-(3-Amino-6,6-difluoro-5-methyl-2,5,6,7-tetrahydro-1,4-oxazepin-5-yl)-4-fluorophenyl)-4-chloro-1-(2,2,2-trifluoroethyl)-1H-pyrazole-3-carboxamide]"
0.886 µM,0.79 µM,"CCc1n[nH]c(C(=O)Nc2ccc(F)c([C@@]3(C)N=C(N)COCC3(F)F)c2)c1C [Example 107, (R)-N-(3-(3-Amino-6,6-difluoro-5-methyl-2,5,6,7-tetrahydro-1,4-oxazepin-5-yl)-4-fluorophenyl)-3-ethyl-4-methyl-1H-pyrazole-5-carboxamide]"
0.0495 µM,0.0057 µM,"C[C@]1(c2cc(NC(=O)c3ccc(C(F)F)cn3)ccc2F)N=C(N)COCC1(F)F [Example 108, (R)-N-(3-(3-Amino-6,6-difluoro-5-methyl-2,5,6,7-tetrahydro-1,4-oxazepin-5-yl)-4-fluorophenyl)-5-(difluoromethyl)picolinamide formate]"
0.143 µM,0.0019 µM,"COc1cnc(C(=O)Nc2ccc(F)c([C@@]3(C)N=C(N)COCC3(F)F)c2)cn1 [Example 109, (R)-N-(3-(3-Amino-6,6-difluoro-5-methyl-2,5,6,7-tetrahydro-1,4-oxazepin-5-yl)-4-fluorophenyl)-5-methoxypyrazine-2-carboxamide formate]"
0.00903 µM,0.0008 µM,"CC1(C)OCC(N)=N[C@](C)(c2cc(NC(=O)c3ccc(Cl)cn3)ccc2F)C1(F)F [Example 110, (R)-N-(3-(3-amino-6,6-difluoro-5,7,7-trimethyl-2,5,6,7-tetrahydro-1,4-oxazepin-5-yl)-4-fluorophenyl)-5-chloropicolinamide]"
0.0305 µM,0.0007 µM,"CC1(C)OCC(N)=N[C@](C)(c2cc(NC(=O)c3ccc(C#N)cn3)ccc2F)C1(F)F [Example 111, (R)-N-(3-(3-amino-6,6-difluoro-5,7,7-trimethyl-2,5,6,7-tetrahydro-1,4-oxazepin-5-yl)-4-fluorophenyl)-5-cyanopicolinamide]"
